In patent publication EP0409999A1, “LIQUID PREPARATION FOR INTRAOCULAR PERFUSION” (Senju Pharmaceutical Co., Ltd., priority 1989, dated 1990):

System: corneal endothelial cell monolayer
Assay: Corneal endothelial barrier function: CF permeation through cultured corneal endothelial cell monolayer on permeable collagen membrane
Assay type: cell-based, male white rabbits
Conditions: result in words; effect grows with increasing concentration of substance (I) in the test solution
Procedure: The eyeballs of male white rabbits were enucleated and in a culture medium prepared by adding 10 % fetal calf serum to Dulbecco's Modified MEM (trademark: Dulbecco's Modified Eagle Medium "Nissui" 2, Nissui Pharmaceutical), (hereinafter referred to as DMEM), the cornea was cut out along the corneosclerai limbus with a pair of scissors. From each of the isolated corneal specimens (8 eyes), the endothelium with Descemet's membrane was peeled off, shorn into small pieces, and seeded with about 5 ml of DMEM in a 75 cm^2 culture flask (trademark: Nunclon Tissue Culture Flask 147589; manufactured by Nunc). After adhesion of the cells to the bottom of the flask, about 20 ml of DMEM was added and the cells were cultured for about 7 days until the growth on the internal wall of the flask became confluent. During this period, the medium was replaced with fresh one every 3 days. After completion of culture, the cells were digested with 5 ml of EDTA- trypsin (a phosphate buffer containing 0.01 % of EDTA and 0.125 % of trypsin and not containing calcium or magnesium ion) and, then, mixed with a sufficient quantity of DMEM to terminate the digestion. The digest was centrifuged at 1000 rpm for 2 minutes and the cells were then collected. The harvested cells were re-suspended in DMEM and filtered through a […] nylon filter to remove Descemet's membrane, leaving an exclusive suspension of cells. […]

Q: `O=C1O[C@H]([C@@H](O)CO)C(O)=C1OP(=O)(O)O` [substance (I)] was tested. Which “permeation of CF through the cultured corneal endothelial cell monolayer” value did it give?
A: The value was “inhibits the permeation of CF”.
